Source: patent US8426587B2, “Haloallylamine inhibitors of SSAO/VAP-1 and uses therefor” (Pharmaxis Ltd., priority 2007, dated 2013)
Counter-ions that a name gives are not always drawn.

Assays:
[1] = biological target: T1, Human SSAO/VAP-1 (Homo sapiens, UniProt Q16853); test: Inhibition of amine oxidase activity of purified human SSAO/VAP-1 (Amplex Red); assay type: biochemical; conditions: purified human SSAO, 300 μM benzylamine
T1 sequence (Q16853 1-763): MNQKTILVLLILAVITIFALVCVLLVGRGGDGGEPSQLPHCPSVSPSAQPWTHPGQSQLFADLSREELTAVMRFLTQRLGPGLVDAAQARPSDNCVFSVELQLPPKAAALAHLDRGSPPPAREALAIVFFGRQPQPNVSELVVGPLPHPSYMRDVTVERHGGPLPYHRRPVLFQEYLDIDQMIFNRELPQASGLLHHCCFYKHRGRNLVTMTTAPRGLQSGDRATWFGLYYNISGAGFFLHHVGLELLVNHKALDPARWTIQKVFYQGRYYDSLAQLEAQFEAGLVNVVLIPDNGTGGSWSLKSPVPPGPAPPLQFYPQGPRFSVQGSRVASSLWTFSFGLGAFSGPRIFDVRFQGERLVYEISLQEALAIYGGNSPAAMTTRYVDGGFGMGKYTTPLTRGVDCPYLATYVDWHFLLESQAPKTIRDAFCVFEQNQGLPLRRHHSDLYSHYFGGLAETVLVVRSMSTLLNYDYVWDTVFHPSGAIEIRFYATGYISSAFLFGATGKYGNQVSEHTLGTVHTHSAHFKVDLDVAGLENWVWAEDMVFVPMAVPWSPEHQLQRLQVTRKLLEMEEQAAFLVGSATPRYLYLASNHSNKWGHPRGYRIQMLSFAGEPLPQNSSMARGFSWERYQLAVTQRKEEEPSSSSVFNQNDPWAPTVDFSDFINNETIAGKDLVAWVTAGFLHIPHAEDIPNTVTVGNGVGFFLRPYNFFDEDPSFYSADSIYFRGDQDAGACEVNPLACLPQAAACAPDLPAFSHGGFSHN
Description: To measure the SSAO activity, adipocyte homogenate (0.5 mg/mL) or adipocytes (adhering cells) containing 0.5 mM pargyline, or purified human SSAO was incubated in 0.1 M sodium phosphate buffer pH 7.4 with varying concentrations of test compounds for 30 min at 37° C. The homogenate was then incubated at 37° C. with 60 μM Amplex® Red, 0.75 U/mL HRP and 40 μM benzylamine (mouse SSAO) or 300 μM benzylamine (human SSAO) and the formation of resorufin was measured (excitation range 530-560 nm and emission at 590 nm) every 10 min in either a Tecan Infinite 200 or a BMG plate reader. The IC50 values were estimated using Graphpad Prism software. The IC50 is an estimation of the concentration of the test compound to inhibit the amine oxidase activity of SSAO/VAP-1 by 50%. The IC50 values of certain invention compounds are included in Table 1.

[2] = biological target: T2, Human MAO-B (Homo sapiens, UniProt P27338); test: Inhibition of recombinant MAO-B (Amplex Red); assay type: biochemical; conditions: 50 μM benzylamine
T2 sequence (P27338 1-520): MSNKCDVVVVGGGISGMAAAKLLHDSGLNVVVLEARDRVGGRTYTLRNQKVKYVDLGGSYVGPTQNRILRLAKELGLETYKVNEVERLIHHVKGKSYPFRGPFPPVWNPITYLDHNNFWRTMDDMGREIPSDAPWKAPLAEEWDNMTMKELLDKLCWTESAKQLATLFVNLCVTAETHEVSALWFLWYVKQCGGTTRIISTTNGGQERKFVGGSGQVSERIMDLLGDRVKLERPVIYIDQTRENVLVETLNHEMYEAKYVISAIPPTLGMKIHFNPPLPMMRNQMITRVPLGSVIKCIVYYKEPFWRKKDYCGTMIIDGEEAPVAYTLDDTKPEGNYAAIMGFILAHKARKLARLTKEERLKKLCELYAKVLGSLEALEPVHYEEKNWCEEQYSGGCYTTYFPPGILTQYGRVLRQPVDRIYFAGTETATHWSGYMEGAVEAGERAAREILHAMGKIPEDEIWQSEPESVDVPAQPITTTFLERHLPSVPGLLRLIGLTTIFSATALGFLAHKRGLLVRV
Description: Recombinant MAO-B was incubated in 0.1 M sodium phosphate buffer pH 7.4 with varying concentration of test compounds for 30 min at 37° C. The homogenate/protein was then incubated at 37° C. with […] Amplex® Red, 0.75 U/ml HRP and 40 μM benzylamine (mouse SSAO), 300 μM benzylamine (human SSAO), 100 μM tyramine (MAO-A) or 50 μM benzylamine (MAO-B) and the formation of resorufin was measured (excitation range 530-560 nm and emission at 590 nm) every 5 min in either a Tecan Infinite 200 or a BMG Fluorostar Optima platereader. IC50 were estimated using Graphpad Prism software.

Row | Structure (SMILES) | IC50 ([1]; 30 min at 37° C. preincubation) [µM] | IC50 ([2]; 30 min at 37° C. preincubation) [µM] | IC50 [1] [µM] | IC50 [2] [µM]
1 | Cc1nc2cc(OC/C(F)=C\CN)ccc2s1.Cl [(E)-3-Fluoro-4-(2-methylbenzo[d]thiazol-5-yloxy)but-2-en-1-amine hydrochloride] | < 1 | < 100 | – | –
2 | CS(=O)(=O)c1ccc(OC/C(F)=C\CN)cc1.Cl [(E)-3-Fluoro-4-(4-(methylsulfonyl)phenoxy)but-2-en-1-amine hydrochloride] | < 1 | < 100 | – | –
3 | NC/C=C(/F)COc1ccc(C(=O)NC2CCCCC2)cc1 [(E)-4-(4-amino-2-fluorobut-2-enyloxy)-N-cyclohexylbenzamide hydrochloride] | < 1 | < 1 | – | –

The remaining lines, values ahead:

Row | IC50 ([1]; 30 min at 37° C. preincubation) [µM] | IC50 ([2]; 30 min at 37° C. preincubation) [µM] | IC50 [1] [µM] | IC50 [2] [µM] | Structure (SMILES)
4 | < 1 | < 1 | – | – | C[C@H](NS(=O)(=O)c1ccc(OC/C(F)=C\CN)cc1)c1ccccc1.Cl [(S,E)-4-(4-Amino-2-fluorobut-2-enyloxy)-N-(1-phenylethyl)benzenesulfonamide]
5 | – | – | 0.021 | 0.004 | NC/C(=C/F)CCc1ccc(F)cc1 [Mofegiline, reference compound]
